Source: patent US8557552B2, “Selective neuronal nitric oxide synthase inhibitors” (Northwestern University, priority 2011, dated 2013)

Experiments:
Type in all cases: biochemical
[1] = molecular target: bovine eNOS (Bos taurus, UniProt P29473); assay: NOS enzyme inhibition assay, eNOS; details: for Ki: bovine eNOS; for Selectivity n/e: ratio Ki eNOS to Ki nNOS
[2] = molecular target: rat nNOS (Rattus norvegicus, UniProt P29476); assay: NOS enzyme inhibition assay, nNOS; details: for Ki: rat nNOS
[3] = molecular target: murine iNOS (Mus musculus, UniProt P29477); assay: NOS enzyme inhibition assay, iNOS; details: for Selectivity n/i: ratio Ki iNOS to Ki nNOS
[4] = KM 1.7 μM, Ki = IC50/(1 + [S]/KM), Table 2
[5] = KM 1.3 μM, Ki = IC50/(1 + [S]/KM), Table 2
[6] = murine iNOS, KM 8.2 μM, Ki = IC50/(1 + [S]/KM), Table 2

Sequence of rat nNOS (P29476 whole entry): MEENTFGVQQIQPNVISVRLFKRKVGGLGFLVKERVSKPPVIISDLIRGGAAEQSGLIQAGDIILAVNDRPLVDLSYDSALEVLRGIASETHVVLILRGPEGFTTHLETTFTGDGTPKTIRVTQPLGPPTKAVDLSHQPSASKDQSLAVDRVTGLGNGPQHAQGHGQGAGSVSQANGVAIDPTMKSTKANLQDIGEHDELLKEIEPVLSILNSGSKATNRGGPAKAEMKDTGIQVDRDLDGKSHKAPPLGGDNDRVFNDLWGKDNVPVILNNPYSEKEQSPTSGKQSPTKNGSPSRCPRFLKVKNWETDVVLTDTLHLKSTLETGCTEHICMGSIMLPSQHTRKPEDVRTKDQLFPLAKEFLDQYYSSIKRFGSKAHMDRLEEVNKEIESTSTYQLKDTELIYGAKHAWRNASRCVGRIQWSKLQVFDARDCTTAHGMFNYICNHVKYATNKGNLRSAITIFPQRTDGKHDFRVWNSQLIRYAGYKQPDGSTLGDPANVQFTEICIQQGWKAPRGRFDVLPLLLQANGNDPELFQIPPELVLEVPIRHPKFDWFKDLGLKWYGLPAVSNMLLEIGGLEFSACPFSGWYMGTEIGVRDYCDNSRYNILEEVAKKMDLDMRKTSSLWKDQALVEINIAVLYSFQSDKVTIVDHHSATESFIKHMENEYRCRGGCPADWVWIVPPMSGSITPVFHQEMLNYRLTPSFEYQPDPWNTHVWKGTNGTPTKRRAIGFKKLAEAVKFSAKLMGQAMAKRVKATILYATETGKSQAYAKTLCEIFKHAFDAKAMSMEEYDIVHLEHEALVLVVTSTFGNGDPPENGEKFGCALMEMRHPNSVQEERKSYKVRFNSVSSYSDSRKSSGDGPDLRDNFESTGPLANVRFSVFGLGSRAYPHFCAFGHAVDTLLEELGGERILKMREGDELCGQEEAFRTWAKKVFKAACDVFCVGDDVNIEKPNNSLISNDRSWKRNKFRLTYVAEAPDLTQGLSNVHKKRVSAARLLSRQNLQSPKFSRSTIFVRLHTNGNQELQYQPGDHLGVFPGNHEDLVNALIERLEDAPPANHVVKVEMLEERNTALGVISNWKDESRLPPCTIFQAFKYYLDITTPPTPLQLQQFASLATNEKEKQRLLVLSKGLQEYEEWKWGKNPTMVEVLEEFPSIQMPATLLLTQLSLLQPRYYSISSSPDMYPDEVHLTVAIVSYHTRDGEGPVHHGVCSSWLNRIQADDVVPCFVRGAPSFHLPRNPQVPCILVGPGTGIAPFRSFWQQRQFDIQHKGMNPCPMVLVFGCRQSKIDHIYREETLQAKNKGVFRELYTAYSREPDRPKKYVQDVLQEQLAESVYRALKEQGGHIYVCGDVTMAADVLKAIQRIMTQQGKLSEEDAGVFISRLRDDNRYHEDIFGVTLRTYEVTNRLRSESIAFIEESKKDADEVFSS
Sequence of bovine eNOS (P29473 whole entry): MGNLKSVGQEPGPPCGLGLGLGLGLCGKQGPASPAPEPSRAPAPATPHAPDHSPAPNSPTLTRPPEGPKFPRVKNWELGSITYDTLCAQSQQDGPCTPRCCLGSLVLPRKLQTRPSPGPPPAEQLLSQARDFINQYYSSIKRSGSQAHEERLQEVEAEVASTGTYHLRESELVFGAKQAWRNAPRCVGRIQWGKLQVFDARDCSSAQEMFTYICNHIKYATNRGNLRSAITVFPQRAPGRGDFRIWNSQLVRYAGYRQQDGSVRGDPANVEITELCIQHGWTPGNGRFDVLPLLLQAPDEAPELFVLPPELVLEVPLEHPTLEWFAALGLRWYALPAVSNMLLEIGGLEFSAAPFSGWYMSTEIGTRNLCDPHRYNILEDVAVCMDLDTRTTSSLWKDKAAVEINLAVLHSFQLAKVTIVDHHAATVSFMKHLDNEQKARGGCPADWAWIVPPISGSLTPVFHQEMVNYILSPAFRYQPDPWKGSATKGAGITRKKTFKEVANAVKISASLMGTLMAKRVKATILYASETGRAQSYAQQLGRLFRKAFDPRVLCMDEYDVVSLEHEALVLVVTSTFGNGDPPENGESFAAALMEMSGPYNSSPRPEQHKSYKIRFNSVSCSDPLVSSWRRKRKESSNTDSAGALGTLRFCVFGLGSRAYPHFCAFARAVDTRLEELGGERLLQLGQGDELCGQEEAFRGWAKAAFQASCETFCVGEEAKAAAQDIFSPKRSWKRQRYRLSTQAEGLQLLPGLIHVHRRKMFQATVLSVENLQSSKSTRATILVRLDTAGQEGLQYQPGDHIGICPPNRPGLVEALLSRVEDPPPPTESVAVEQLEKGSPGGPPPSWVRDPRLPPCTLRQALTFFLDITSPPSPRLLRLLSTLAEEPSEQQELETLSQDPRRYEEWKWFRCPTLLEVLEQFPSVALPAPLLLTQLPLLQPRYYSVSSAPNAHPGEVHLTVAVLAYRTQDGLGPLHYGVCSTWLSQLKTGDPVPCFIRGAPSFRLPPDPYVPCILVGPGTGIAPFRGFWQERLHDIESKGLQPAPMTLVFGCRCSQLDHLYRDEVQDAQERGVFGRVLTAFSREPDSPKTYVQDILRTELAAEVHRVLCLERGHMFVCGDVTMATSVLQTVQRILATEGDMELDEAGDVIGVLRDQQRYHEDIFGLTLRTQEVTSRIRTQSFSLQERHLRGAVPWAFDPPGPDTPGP

SMILES | Ki ([1]; in vitro, Table 1) | Selectivity n/e ([1]; Table 1) | Ki ([2]; in vitro, Table 1) | Ki ([3]; in vitro, Table 1) | Selectivity n/i ([3]; Table 1) | n/e, ratio of Ki (eNOS) to nNOS ([1]; Table 2) | Ki [1, 4] | Ki [2, 5] | n/i, ratio of Ki (iNOS) to nNOS ([3]; Table 2) | Ki [3, 6] | nNOS selectivity over eNOS compared with Ji19 ([1]; comment on Table 2) | nNOS potency compared with Ji19 ([2]; comment on Table 2)
Cc1cc(N)nc(C[C@@H]2CNC[C@@H]2OCCCCc2ccccn2)c1 [22a] | 15.9 µM | 6.8 | 2340 nM | 12.5 µM | 5.4 | – | – | – | – | – | – | –
Cc1ccnc(CCCCO[C@H]2CNC[C@H]2Cc2cc(C)cc(N)n2)c1 [22b] | 25.5 µM | 23.6 | 1080 nM | 17.9 µM | 16.5 | – | – | – | – | – | – | –
COc1ccnc(CCCCO[C@H]2CNC[C@H]2Cc2cc(C)cc(N)n2)c1 [22c] | 5.47 µM | 31.5 | 174 nM | 5.44 µM | 31.3 | – | – | – | – | – | – | –
Cc1cc(N)nc(C[C@@H]2CNC[C@@H]2OCCCOc2ccc(F)c(C(F)(F)F)c2)c1 [25a] | 5.06 µM | 2.0 | 2490 nM | 14.6 µM | 5.8 | – | – | – | – | – | – | –
Cc1cc(N)nc(C[C@@H]2CNC[C@@H]2OCCCOc2ccc(F)c(Cl)c2)c1 [25b] | 10.5 µM | 3.1 | 3340 nM | 18.5 µM | 5.5 | – | – | – | – | – | – | –
Cc1cc(N)nc(C[C@@H]2CNC[C@@H]2OCCCOc2cc(F)cc(C(F)(F)F)c2)c1 [25c] | 5 µM | 3.0 | 1670 nM | 32.4 µM | 19.3 | – | – | – | – | – | – | –
Cc1cc(N)nc(C[C@@H]2CNC[C@@H]2OCCCOc2cc(F)cc(Cl)c2)c1 [25d] | 9.02 µM | 19.9 | 453 nM | 41.1 µM | 90.6 | – | – | – | – | – | – | –
Cc1cc(N)nc(C[C@@H]2CNC[C@@H]2OCCCOc2cc(Cl)cc(C(F)(F)F)c2)c1 [25e] | 1.38 µM | 1.5 | 931 nM | 25.6 µM | 27.5 | – | – | – | – | – | – | –
Cc1cc(N)nc(C[C@@H]2CNC[C@@H]2OCCCOc2cc(C(F)(F)F)cc(C(F)(F)F)c2)c1 [25f] | 2.68 µM | 5.2 | 516 nM | 12.2 µM | 23.7 | – | – | – | – | – | – | –
Cc1cc(N)nc(C[C@@H]2CNC[C@@H]2OCCCCCc2cccc(F)c2)c1.Cl.Cl [HH001] | – | – | – | – | – | 37 | 33.8 µM | 922 nM | 91 | 83.8 µM | – | –
Cc1cc(N)nc(C[C@@H]2CNC[C@@H]2OCCCCCc2cc(F)cc(Cl)c2)c1 [HH002, 6-(((3R,4R)-4-((5-(3-chloro-5-fluorophenyl)pentyl)oxy)pyrrolidin-3-yl)methyl)-4-methylpyridin-2-amine] | – | – | – | – | – | 155 | 35.6 µM | 230 nM | 461 | 106 µM | – | –
Cc1cc(N)nc(C[C@@H]2CNC[C@@H]2OCCC/C=C/c2cccc(F)c2)c1 [HH003, 6-(((3R,4R)-4-(((E)-5-(3-fluorophenyl)pent-4-en-1-yl)oxy)pyrrolidin-3-yl)methyl)-4-methylpyridin-2-amine] | – | – | – | – | – | 121 | 77 µM | 637 nM | 55 | 35.1 µM | – | –
Cc1cc(N)nc(C[C@H]2CNC[C@H]2OCCCCCc2cccc(F)c2)c1.Cl.Cl [HH004] | – | – | – | – | – | 4 | 34 µM | 9060 nM | 52 | 468 µM | – | –
Cc1cc(N)nc(C[C@H]2CNC[C@H]2OCCC/C=C/c2cccc(F)c2)c1.Cl.Cl [HH005] | – | – | – | – | – | 4 | 69 µM | 15400 nM | 9 | 134 µM | – | –
Cc1cc(N)nc(C[C@@H]2CNC[C@@H]2OCCCCCc2cccc(N)c2)c1 [HH008, 6-(((3R,4R)-4-((5-(3-aminophenyl)pentyl)oxy)pyrrolidin-3-yl)methyl)-4-methylpyridin-2-amine] | – | – | – | – | – | 1117 | – | – | 619 | – | – | –
Cc1cc(N)nc(C[C@@H]2CNC[C@@H]2OCCCCNc2ccccn2)c1.Cl.Cl.Cl [Ji20] | – | – | – | – | – | 154 | 1.39 µM | 9 nM | 54 | 0.491 µM | lower nNOS selectivity over eNOS | higher nNOS potency
Cc1cc(N)nc(C[C@H]2CNC[C@H]2OCCCCNc2ccccn2)c1.Cl.Cl.Cl [Ji21] | – | – | – | – | – | 157 | 5.67 µM | 36 nM | 27 | 0.973 µM | – | –
Cc1cc(N)nc(C[C@@H]2CNC[C@@H]2OCCCCOc2cc(F)cc(F)c2)c1.Cl.Cl [Ji22] | – | – | – | – | – | 122 | 146 µM | 1200 nM | 32 | 38.1 µM | – | –
Cc1cc(N)nc(C[C@@H]2CNC[C@@H]2OCCCCOc2cc(F)cc(Cl)c2)c1.Cl.Cl [Ji23] | – | – | – | – | – | 37 | 4.37 µM | 117 nM | 106 | 12.4 µM | – | –
COc1ccnc(/C=C/CCO[C@H]2CNC[C@H]2Cc2cc(C)cc(N)n2)c1 [compound 23] | 2.22 µM | 6.3 | 351 nM | 2.48 µM | 7.1 | – | – | – | – | – | – | –
